Data taken from patent publication US9074300B2 (priority 2001, dated 2015).
pKd: −log10 of the molar value.

Legend:
[1] = biological target: T1, GST (Rattus norvegicus, UniProt P08010); details: read-out: affinity of binding to GST; cited from earlier work
[2] = biological target: T1, GST; details: corresponds to affinity of 100 μM
From the text: For example, glutathione-S-transferase (GST) is an enzyme which is commonly used as an affinity handle for the purification of recombinant proteins. The target protein is expressed and purified as a GST fusion and may then be treated with a protease to remove the GST domain (Smith and Johnson, 1988).

[3] = biological target: T2, GST (Schistosoma japonicum, UniProt P08515); experiment: SPR immobilization of GST to self-assembled monolayer; assay type: binding; details: monolayer from 1:99 mixture of alkanethiol 13 and penta(ethylene glycol) alkanethiol; GST 100 μM, PBS pH 7.4
T2 sequence (P08515 2-218 limits assumed): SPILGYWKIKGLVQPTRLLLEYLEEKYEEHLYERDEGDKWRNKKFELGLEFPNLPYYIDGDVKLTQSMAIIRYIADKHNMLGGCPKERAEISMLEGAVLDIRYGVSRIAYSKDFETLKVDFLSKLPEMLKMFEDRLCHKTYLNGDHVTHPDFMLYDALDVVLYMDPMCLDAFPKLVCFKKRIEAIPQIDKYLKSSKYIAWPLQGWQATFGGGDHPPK

[4] = biological target: cutinase (Fusarium vanettenii, UniProt P00590); assay type: biochemical, Fusarium solani pisi; details: read-out: Michaelis constant (KM)
cutinase, sequence (P00590 17-230): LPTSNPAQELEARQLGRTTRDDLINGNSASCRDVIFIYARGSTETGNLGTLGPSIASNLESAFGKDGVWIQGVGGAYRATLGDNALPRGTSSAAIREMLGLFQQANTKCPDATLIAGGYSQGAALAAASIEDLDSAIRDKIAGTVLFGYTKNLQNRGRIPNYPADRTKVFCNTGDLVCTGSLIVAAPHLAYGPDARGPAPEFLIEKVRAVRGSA
Experimental: The release of PNP was followed using absorbance spectroscopy.
Spectrophotometric measurement was performed at room temperature using BECKMAN DU-640 spectrophotometer (BECKMAN COULTER, INC., Fullerton, Calif.).

[5] = biological target: T2, GST; details: bound complex with GST

T1 sequence (P08010 2-218 limits assumed): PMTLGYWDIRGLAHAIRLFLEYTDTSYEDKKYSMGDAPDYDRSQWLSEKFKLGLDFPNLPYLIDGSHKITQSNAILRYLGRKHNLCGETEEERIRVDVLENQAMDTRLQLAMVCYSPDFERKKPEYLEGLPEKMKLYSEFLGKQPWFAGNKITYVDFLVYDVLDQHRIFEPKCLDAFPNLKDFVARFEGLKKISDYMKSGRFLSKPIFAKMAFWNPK

N[C@@H](CCC(=O)N[C@@H](CS)C(=O)NCC(=O)O)C(=O)O [glutathione]
pKd [1]: ~4.00
lifetime of the bound complex [2]: about one

Hydroquinone-glutathione-EG5-alkanethiol [compound 13]
binding of GST to monolayer [3]: this binding was irreversible

CCCC(=O)Oc1ccc([N+](=O)[O-])cc1 [4-nitrophenyl butyrate]
Km [4]: 1000 µM

Glutathione-dichtoroquinone conjugate [formula (6)]
first-order rate constant of irreversible cross-linking reaction [5]: 0.11 ± 0.03 min⁻¹
